Experimental data: ChEMBL document CHEMBL3045535, “Evaluation of lufenuron as a chemosterilant against fruit flies of the genus Anastrepha (Diptera: Tephritidae)” (2010)

Tested on: Anastrepha striata
Assay: Reduction of fertility in 7 days old adult of Anastrepha striata assessed as reduction of egg hatching at 10 mg/g treated with diet measured after 9 days oviposition
Format: functional
Set-up: scale not given: the % may be the effect or the level left

O=C(NC(=O)c1c(F)cccc1F)Nc1cc(Cl)c(OC(F)(F)C(F)C(F)(F)F)cc1Cl (racemic) [LUFENURON]
Activity: 6%
